Laboratory results reported in PubChem BioAssay (NCI).
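Five concentrations, 48 hours, 96-well plates. TGI denotes the concentration required for complete inhibition of growth.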

Tests used:
Assay in all cases: DTP human tumour cell line panel, 48 h
COLO 205 colon = test system: COLO 205 colon
SK-OV-3 ovarian = test system: SK-OV-3 ovarian
RPMI-8226 leukemia = test system: RPMI-8226 leukemia
T-47D breast = test system: T-47D breast
MCF7 breast = test system: MCF7 breast
HOP-92 NSCLC = test system: HOP-92 NSCLC
OVCAR-3 ovarian = test system: OVCAR-3 ovarian
SNB-19 CNS = test system: SNB-19 CNS
SR leukemia = test system: SR leukemia
OVCAR-8 ovarian = test system: OVCAR-8 ovarian
SK-MEL-28 melanoma = test system: SK-MEL-28 melanoma
SK-MEL-5 melanoma = test system: SK-MEL-5 melanoma
NCI-H522 lung = test system: NCI-H522 lung
NCI/ADR-RES ovarian = test system: NCI/ADR-RES ovarian

`Cc1cccc2c1NC(=S)[C@@H]1CCCN1C2=O` was tested, and the TGI (COLO 205 colon) was > 100 µM, the TGI (SK-OV-3 ovarian) was > 100 µM and the TGI (RPMI-8226 leukemia) was > 100 µM. For the same molecule, the TGI (T-47D breast) was > 100 µM, the TGI (MCF7 breast) was > 100 µM and the TGI (HOP-92 NSCLC) was > 100 µM. For the same molecule, the TGI (OVCAR-3 ovarian) was > 100 µM, the TGI (SNB-19 CNS) was > 100 µM and the TGI (SR leukemia) was > 100 µM. The TGI (OVCAR-8 ovarian) was > 100 µM, the TGI (SK-MEL-28 melanoma) was > 100 µM and the TGI (SK-MEL-5 melanoma) was > 100 µM. The TGI (NCI-H522 lung) was > 100 µM and the TGI (NCI/ADR-RES ovarian) was > 100 µM.
`COc1ccc(N=C(Nc2ccc(OC)cc2)C(=Nc2ccc(OC)cc2)Nc2ccc(OC)cc2)cc1` was tested, and the TGI (COLO 205 colon) was > 100 µM, the TGI (SK-OV-3 ovarian) was > 100 µM and the TGI (RPMI-8226 leukemia) was > 100 µM. For the same molecule, the TGI (T-47D breast) was > 100 µM, the TGI (MCF7 breast) was > 100 µM and the TGI (HOP-92 NSCLC) was > 100 µM. For the same molecule, the TGI (OVCAR-3 ovarian) was > 100 µM, the TGI (SNB-19 CNS) was > 100 µM and the TGI (SR leukemia) was > 100 µM. The TGI (OVCAR-8 ovarian) was > 100 µM, the TGI (SK-MEL-28 melanoma) was > 100 µM and the TGI (SK-MEL-5 melanoma) was > 100 µM. The TGI (NCI-H522 lung) was > 100 µM and the TGI (NCI/ADR-RES ovarian) was > 100 µM.
In the case of `Clc1ccc(C2NN=C3c4ccccc4OCC32)cc1` (centres undefined), the TGI (COLO 205 colon) is reported as 12.4 µM, the TGI (SK-OV-3 ovarian) is reported as > 100 µM and the TGI (RPMI-8226 leukemia) is reported as 6.93 µM. For the same molecule, the TGI (T-47D breast) was 54.3 µM, the TGI (MCF7 breast) was > 45.2 µM and the TGI (HOP-92 NSCLC) was > 100 µM. The TGI (OVCAR-3 ovarian) was 29.6 µM, the TGI (SNB-19 CNS) was > 100 µM and the TGI (SR leukemia) was 5.67 µM. For the same molecule, the TGI (OVCAR-8 ovarian) was 55.2 µM, the TGI (SK-MEL-28 melanoma) was > 85.6 µM and the TGI (SK-MEL-5 melanoma) was 20.4 µM. It also gave a TGI (NCI-H522 lung) of 3.63 µM and a TGI (NCI/ADR-RES ovarian) of 6.14 µM.
`O=C1CCCCc2cccc(O)c21` was tested, and the TGI (COLO 205 colon) was > 100 µM, the TGI (SK-OV-3 ovarian) was > 100 µM and the TGI (RPMI-8226 leukemia) was > 100 µM. For the same molecule, the TGI (T-47D breast) was > 100 µM, the TGI (MCF7 breast) was > 100 µM and the TGI (HOP-92 NSCLC) was > 100 µM. The TGI (OVCAR-3 ovarian) was > 100 µM, the TGI (SNB-19 CNS) was > 100 µM and the TGI (SR leukemia) was > 100 µM. For the same molecule, the TGI (OVCAR-8 ovarian) was > 100 µM, the TGI (SK-MEL-28 melanoma) was > 100 µM and the TGI (SK-MEL-5 melanoma) was > 100 µM. The TGI (NCI-H522 lung) was > 100 µM and the TGI (NCI/ADR-RES ovarian) was > 100 µM.
`C=CC[C@H]1[C@H](O[Si](C)(C)C(C)(C)C)C=CC(=O)[C@@H]1CC(=O)N(Cc1ccccc1)Cc1ccccc1` was tested, and the TGI (COLO 205 colon) was 25.6 µM, the TGI (SK-OV-3 ovarian) was > 100 µM and the TGI (RPMI-8226 leukemia) was > 100 µM. The TGI (T-47D breast) was 44.2 µM, the TGI (MCF7 breast) was > 100 µM and the TGI (HOP-92 NSCLC) was 8.51 µM. For the same molecule, the TGI (OVCAR-3 ovarian) was 67 µM, the TGI (SNB-19 CNS) was > 100 µM and the TGI (SR leukemia) was > 100 µM. For the same molecule, the TGI (OVCAR-8 ovarian) was > 100 µM, the TGI (SK-MEL-28 melanoma) was > 100 µM and the TGI (SK-MEL-5 melanoma) was 20.7 µM. For the same molecule, the TGI (NCI-H522 lung) was > 100 µM and the TGI (NCI/ADR-RES ovarian) was 80.6 µM.
`CNC(=S)N/N=C/c1cccc(C)n1` was tested, and the TGI (COLO 205 colon) was > 85.2 µM, the TGI (SK-OV-3 ovarian) was > 100 µM and the TGI (RPMI-8226 leukemia) was > 100 µM. The TGI (T-47D breast) was > 92.4 µM, the TGI (MCF7 breast) was > 100 µM and the TGI (HOP-92 NSCLC) was > 100 µM. For the same molecule, the TGI (OVCAR-3 ovarian) was > 100 µM, the TGI (SNB-19 CNS) was > 100 µM and the TGI (SR leukemia) was > 78.1 µM. For the same molecule, the TGI (OVCAR-8 ovarian) was > 75.7 µM, the TGI (SK-MEL-28 melanoma) was > 100 µM and the TGI (SK-MEL-5 melanoma) was > 74.9 µM. The TGI (NCI-H522 lung) was > 86.2 µM and the TGI (NCI/ADR-RES ovarian) was 63.3 µM.
`COc1cc2c(cc1OC)CC(N=[N+]=[N-])c1cc(OC)c(OC)cc1/C=C\2` (centres undefined) was tested, and the TGI (COLO 205 colon) was > 100 µM, the TGI (SK-OV-3 ovarian) was > 100 µM and the TGI (RPMI-8226 leukemia) was > 100 µM. For the same molecule, the TGI (T-47D breast) was > 100 µM, the TGI (MCF7 breast) was > 100 µM and the TGI (HOP-92 NSCLC) was > 100 µM. For the same molecule, the TGI (OVCAR-3 ovarian) was > 100 µM, the TGI (SNB-19 CNS) was > 100 µM and the TGI (SR leukemia) was > 100 µM. For the same molecule, the TGI (OVCAR-8 ovarian) was 55.8 µM, the TGI (SK-MEL-28 melanoma) was > 100 µM and the TGI (SK-MEL-5 melanoma) was 63.1 µM. The TGI (NCI-H522 lung) was > 100 µM and the TGI (NCI/ADR-RES ovarian) was > 100 µM.
`Cc1nc2c(sc3nc4ccccc4n32)c(=O)[nH]1` was tested, and the TGI (COLO 205 colon) was > 100 µM, the TGI (SK-OV-3 ovarian) was > 100 µM and the TGI (RPMI-8226 leukemia) was > 100 µM. The TGI (T-47D breast) was > 100 µM, the TGI (MCF7 breast) was > 100 µM and the TGI (HOP-92 NSCLC) was > 100 µM. The TGI (OVCAR-3 ovarian) was > 100 µM, the TGI (SNB-19 CNS) was > 100 µM and the TGI (SR leukemia) was > 100 µM. For the same molecule, the TGI (OVCAR-8 ovarian) was > 100 µM, the TGI (SK-MEL-28 melanoma) was > 100 µM and the TGI (SK-MEL-5 melanoma) was > 100 µM. For the same molecule, the TGI (NCI-H522 lung) was > 100 µM and the TGI (NCI/ADR-RES ovarian) was > 100 µM.
`CSC1=C(c2ccc(Cl)cc2)SC(N2CCCCC2)N1c1ccc([N+](=O)[O-])cc1` (centres undefined) showed a TGI (COLO 205 colon) of 81.3 µM, a TGI (SK-OV-3 ovarian) of 81.9 µM and a TGI (RPMI-8226 leukemia) of 45.2 µM. For the same molecule, the TGI (T-47D breast) was 70.1 µM, the TGI (MCF7 breast) was > 100 µM and the TGI (HOP-92 NSCLC) was 72.3 µM. The TGI (OVCAR-3 ovarian) was 58.1 µM, the TGI (SNB-19 CNS) was > 100 µM and the TGI (SR leukemia) was > 100 µM. For the same molecule, the TGI (OVCAR-8 ovarian) was 93.7 µM, the TGI (SK-MEL-28 melanoma) was > 100 µM and the TGI (SK-MEL-5 melanoma) was 29.9 µM. For the same molecule, the TGI (NCI-H522 lung) was 63.3 µM and the TGI (NCI/ADR-RES ovarian) was 62.3 µM.
With `C[Si](C)(OCCS(=O)(=O)O)C1S(=O)(=O)OCCOS1(=O)=O` the TGI (COLO 205 colon) was > 100 µM, the TGI (SK-OV-3 ovarian) was > 100 µM and the TGI (RPMI-8226 leukemia) was > 100 µM. For the same molecule, the TGI (T-47D breast) was > 100 µM, the TGI (MCF7 breast) was > 100 µM and the TGI (HOP-92 NSCLC) was > 100 µM. For the same molecule, the TGI (OVCAR-3 ovarian) was > 100 µM, the TGI (SNB-19 CNS) was > 100 µM and the TGI (SR leukemia) was > 100 µM. For the same molecule, the TGI (OVCAR-8 ovarian) was > 100 µM, the TGI (SK-MEL-28 melanoma) was > 100 µM and the TGI (SK-MEL-5 melanoma) was > 100 µM. The TGI (NCI-H522 lung) was > 100 µM and the TGI (NCI/ADR-RES ovarian) was > 100 µM.
`CC[C@@H](/C=C\CCC1(C[C@H](O)CCC=C(C)C)OCCO1)O[Si](C(C)C)(C(C)C)C(C)C` showed a TGI (COLO 205 colon) of 40.1 µM, a TGI (SK-OV-3 ovarian) of 41.8 µM and a TGI (RPMI-8226 leukemia) of 42.7 µM. For the same molecule, the TGI (T-47D breast) was 42.6 µM, the TGI (MCF7 breast) was 32 µM and the TGI (HOP-92 NSCLC) was 66.8 µM. The TGI (OVCAR-3 ovarian) was 37.1 µM, the TGI (SNB-19 CNS) was 33.8 µM and the TGI (SR leukemia) was 51.3 µM. The TGI (OVCAR-8 ovarian) was 38 µM, the TGI (SK-MEL-28 melanoma) was 73.4 µM and the TGI (SK-MEL-5 melanoma) was 37.5 µM. For the same molecule, the TGI (NCI-H522 lung) was 39.2 µM and the TGI (NCI/ADR-RES ovarian) was 53.9 µM.
